Laboratory results published in patent publication US20110098296A1, “Thiazole And Oxazole Kinase Inhibitors” (priority 2007, published 2011).
Counter-ions that a name gives are not always drawn.

Tests used:
BT474 tumor cells = assay: Method C: Cell Growth Inhibition Assay (CellTiter-Glo), BT474; type: cell-based; details: Homo sapiens, BT-474, 72 h, 3 days, 4-parameter fit
Procedure: (§1) Human breast tumor cells (BT474) were cultured in RPMI (Mediatech 50-011-PB), containing 10% FBS (JRH Biosciences 12176) and 1% penicillin-streptomycin (Invitrogen 15140). Human head and neck tumor cells (HN5) were cultured in high glucose DMEM (Mediatech 50-013-PB) containing 10% FBS and 1% penicillin-streptomycin. Human colon tumor cells (Colo205) were cultured in RPMI (Mediatech 50-020-PB) containing 10% FBS and 1% penicillin-streptomycin. Human melanoma cancer cells (SK-MEL-28) were cultured in EMEM with nonessential amino acids (Mediatech 50-011-PB) containing 10% FBS, 1% sodium pyruvate (JT Baker 3354-04), and 1% penicillin-streptomycin. Human melanoma cancer cells (A375P F11s) were cultured in RPMI (Mediatech 50-020-PB) containing 10% FBS, 1% sodium pyruvate, and 1% penicillin-streptomycin. Human colon cancer cells (HT-29) were cultured in high glucose DMEM (Mediatech 50-013-PB) containing 10% FBS and 1% penicillin-streptomycin. Human melanoma cancer cells (SK-MEL-3) were cultured in McCoy's 5A (50-025-PB) containing 15% FBS, and 1% penicillin-streptomycin. All cell lines were maintained at 37° C. in a humidified 5% CO2, 95% air incubator. Cells were harvested using trypsin/EDTA (Invitrogen 25200), counted using an haemocytometer, and plated. For 96-well assays (using white full-area NUNC plates cat. #136102), cells were plated in 105 μL at the following densities (cells/well): HN5, 500; Colo205, 500; SK-MEL-28, 500; A375P-F11s, 500; HT-29, 500; SK-MEL-3, 500; and BT474, 3000. For 384-well assays (white full-area NUNC plates, cat. #781080), cells were plated in 48 μL at the following densities (cells/well): HN5, 500; Colo205, 500; SK-MEL-28, 500; A375P-F11s, 500; HT29, 500; SK-MEL-3, 500; and BT474, 2000.
(§2) The next day, compounds were diluted as follow: For 96-well assays, 13.5 μL of compound in DMSO were diluted using nine (9) serial 1:3 dilutions of 4.5 μL in 9 μL of DMSO. Medium (270 μl/well of RPMI with 10% FBS and 1% penicillin-streptomycin) was added to the plates. Aliquots (7 μl) were added to cells in the final assay giving a final DMSO concentration of 0.2%. For 384-well assays, 15 μL of compound in DMSO were diluted using nine (9) serial 1:3 dilutions of 5 μL in 10 μL of DMSO, followed by a further dilution of 5 μL of compound with 95 μL of medium, of which 2 μL were added to cells in the final assay giving a final DMSO concentration of 0.2%. Cells were incubated at 37° C., 5% CO2 for 3 days.
(§3) Total ATP was measured (as a surrogate estimate of cell number) using CellTiter-Glo® reagent (Promega G7571). Briefly, plates were removed from the incubator and allowed to equilibrate to room temperature for 30 minutes. CellTiter-Glo® (25 μL or 55 μL for 384-well or 96-well assays, respectively) reagent was added to each well and plates were shaken on an orbital plate shaker for 2 mins. Plates were incubated without shaking for a further 30 mins and read on an LJL Analyst GT reader in luminometer mode with an integration time of 0.5 seconds per well. Percent inhibition of cell growth was calculated relative to DMSO vehicle-treated control wells. Concentration of compound required to give 50% inhibition of vehicle-treated control cell growth (IC50) was interpolated using a 4-parameter fit for determining IC50 using the following equation: Y=A+((B−A)/(1+((C/X)̂D))) where X=IC50.

Colo205 tumor cells = assay: Method C: Cell Growth Inhibition Assay (CellTiter-Glo), Colo205; type: cell-based; details: Homo sapiens, COLO 205, 72 h, 3 days, 4-parameter fit
Procedure: as §1, §2, §3

EGFR = biological target: T1, EGFR (Homo sapiens, UniProt P00533); assay: EGFR substrate phosphorylation assay (HTRF); type: biochemical; details: Method (A): Enzyme Mix incubated with compound at 20° C. for 1 hr, reaction started by adding Substrate Mix
T1 construct: made in house; host or cells: baculovirus expression system
Procedure: (§4) Compounds of the present invention were tested for EGFR and ErbB-2 protein tyrosine kinase inhibitory activity in substrate phosphorylation assays using enzymes purified from a baculovirus expression system. Reagent production was conducted essentially as described in Brignola, P. S., et al., (2002) J. Biol. Chem. 277(2):1576-1585.
(§5) The method measures the ability of the isolated enzyme to catalyse the transfer of the gamma-phosphate from ATP onto the tyrosine residue of a biotinylated synthetic peptide referenced “Peptide C” in Brignola, P. S., et al., (2002) J. Biol. Chem. 277(2):1576-1585. The extent of tyrosine phosphorylation was measured using an anti-phosphotyrosine antibody, and quantified by homogenous time-resolved fluorescence (HTRF).
(§6) Reactions were performed in black 384-well polystyrene flat-bottom plates in a final volume of 20 μl. Assays were performed by adding 10 μl of each of the following solutions, Substrate Mix and Enzyme Mix: The Substrate Mix contained 100 mM 3-[N-morpholino]propanesulfonic acid (MOPS) (pH 7.5), 2 mM MnCl2, 20 μM ATP, 0.01% Tween-20, 0.1 mg/mL (BSA), 0.8 uM peptide substrate, and 1 mM dithiothreitol. The Enzyme Mix contained 100 mM MOPS (pH 7.5); 0.01% Tween-20; 0.1 mg/mL BSA, and either 0.8 nM EGFR, 10 nM ErbB2, or 1 nM ErbB4
(§7) During the course of these studies, two separate methods have been used to measure the potency of compounds. In Method A (indicated as “(A)” in the tables below), the Enzyme Mix was added to the compound plates and the plates were incubated at 20° C. for 1 hr. The reactions were then started by adding the Substrate Mix. In Method B (indicated as “(B)” in the tables below), the Substrate Mix was added to the compound plates first, then the reaction was started by adding the Enzyme Mix.
(§8) After initiating the reaction with either method describe above, the reactions were allowed to proceed for 90 minutes at 20° C. The reactions were then terminated by the addition of 20 μL 100 mM EDTA to each well. 40 μL/well of HTRF detection mix were added to the assay plates. The final concentrations of the detection reagents were: 100 mM HEPES (pH7.5), 0.1 mg/mL BSA, 15 nM streptavidin-labeled allophycocyanin (PerkinElmer), and 1 nM europium-labeled anti-phosphotyrosine antibody (PerkinElmer). Assay plates were left unsealed and were counted in a Wallac Multilabel Counter 1420 (PerkinElmer).
(§9) Compounds under analysis were dissolved in dimethylsulfoxide (DMSO) to 1.0 mM and serially diluted 1 to 3 with DMSO through twelve dilutions. 1 μL of each concentration was transferred to the corresponding well of an assay plate. This creates a final compound concentration range from 0.00027 to 47.6 μM.
(§10) The data for dose responses were plotted as % Inhibition calculated with the data reduction formula 100*(1−(U1−C2)/(C1−C2)) versus concentration of compound where U1 is the unknown value, C1 is the average control value obtained for 4.76% DMSO, and C2 is the average control value obtained for 0.035 M EDTA. Data were fitted with a curve described by:
(§11) where Vmax is the upper asymptote, Y2 is the Y intercept, and K is the IC50. The results for each compound were recorded as pIC50s, calculated as follows: […]

SK-MEL-28 tumor cells = assay: Method C: Cell Growth Inhibition Assay (CellTiter-Glo), SK-MEL-28; type: cell-based; details: Homo sapiens, SK-MEL-28, 72 h, 3 days, 4-parameter fit
Procedure: as §1, §2, §3

ErbB2 = biological target: T2, ErbB2 (Homo sapiens, UniProt P04626); assay: ErbB-2 substrate phosphorylation assay (HTRF); type: biochemical; details: Method (A): Enzyme Mix incubated with compound at 20° C. for 1 hr, reaction started by adding Substrate Mix
T2 construct: made in house; host or cells: baculovirus expression system
Procedure: as §4, §5, §6, §7, §8, §9, §10, §11

T2 sequence (P04626 23-1255): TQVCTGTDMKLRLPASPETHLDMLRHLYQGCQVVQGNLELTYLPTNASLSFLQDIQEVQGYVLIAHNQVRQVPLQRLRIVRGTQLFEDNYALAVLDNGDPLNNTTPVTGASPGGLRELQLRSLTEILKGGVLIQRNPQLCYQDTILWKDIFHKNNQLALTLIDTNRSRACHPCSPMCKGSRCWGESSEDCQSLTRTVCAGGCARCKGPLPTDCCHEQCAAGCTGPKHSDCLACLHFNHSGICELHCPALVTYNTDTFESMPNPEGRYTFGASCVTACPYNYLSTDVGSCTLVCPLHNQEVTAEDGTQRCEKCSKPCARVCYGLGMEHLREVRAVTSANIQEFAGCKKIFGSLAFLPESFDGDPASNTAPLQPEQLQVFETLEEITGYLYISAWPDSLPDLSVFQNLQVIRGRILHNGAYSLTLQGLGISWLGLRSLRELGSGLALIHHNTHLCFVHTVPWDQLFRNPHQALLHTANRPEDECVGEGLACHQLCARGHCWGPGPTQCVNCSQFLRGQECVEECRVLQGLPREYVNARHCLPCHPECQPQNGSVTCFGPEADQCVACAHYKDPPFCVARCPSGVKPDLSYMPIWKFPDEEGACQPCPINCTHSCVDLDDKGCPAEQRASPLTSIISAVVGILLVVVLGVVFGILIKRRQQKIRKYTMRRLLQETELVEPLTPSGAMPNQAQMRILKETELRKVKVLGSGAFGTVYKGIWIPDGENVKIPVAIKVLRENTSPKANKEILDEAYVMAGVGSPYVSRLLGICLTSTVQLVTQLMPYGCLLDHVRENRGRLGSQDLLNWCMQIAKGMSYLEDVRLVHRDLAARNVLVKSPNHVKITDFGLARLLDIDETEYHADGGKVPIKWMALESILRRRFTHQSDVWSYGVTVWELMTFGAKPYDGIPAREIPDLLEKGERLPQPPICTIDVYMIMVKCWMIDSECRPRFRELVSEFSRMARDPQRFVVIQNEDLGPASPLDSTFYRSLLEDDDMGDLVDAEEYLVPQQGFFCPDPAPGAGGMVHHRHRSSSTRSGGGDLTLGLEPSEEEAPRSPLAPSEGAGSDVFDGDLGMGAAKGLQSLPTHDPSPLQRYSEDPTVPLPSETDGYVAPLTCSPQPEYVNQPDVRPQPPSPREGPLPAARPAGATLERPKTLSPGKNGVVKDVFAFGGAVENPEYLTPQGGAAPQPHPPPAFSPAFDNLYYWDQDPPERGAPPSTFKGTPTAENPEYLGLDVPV
T1 sequence (P00533 25-1210): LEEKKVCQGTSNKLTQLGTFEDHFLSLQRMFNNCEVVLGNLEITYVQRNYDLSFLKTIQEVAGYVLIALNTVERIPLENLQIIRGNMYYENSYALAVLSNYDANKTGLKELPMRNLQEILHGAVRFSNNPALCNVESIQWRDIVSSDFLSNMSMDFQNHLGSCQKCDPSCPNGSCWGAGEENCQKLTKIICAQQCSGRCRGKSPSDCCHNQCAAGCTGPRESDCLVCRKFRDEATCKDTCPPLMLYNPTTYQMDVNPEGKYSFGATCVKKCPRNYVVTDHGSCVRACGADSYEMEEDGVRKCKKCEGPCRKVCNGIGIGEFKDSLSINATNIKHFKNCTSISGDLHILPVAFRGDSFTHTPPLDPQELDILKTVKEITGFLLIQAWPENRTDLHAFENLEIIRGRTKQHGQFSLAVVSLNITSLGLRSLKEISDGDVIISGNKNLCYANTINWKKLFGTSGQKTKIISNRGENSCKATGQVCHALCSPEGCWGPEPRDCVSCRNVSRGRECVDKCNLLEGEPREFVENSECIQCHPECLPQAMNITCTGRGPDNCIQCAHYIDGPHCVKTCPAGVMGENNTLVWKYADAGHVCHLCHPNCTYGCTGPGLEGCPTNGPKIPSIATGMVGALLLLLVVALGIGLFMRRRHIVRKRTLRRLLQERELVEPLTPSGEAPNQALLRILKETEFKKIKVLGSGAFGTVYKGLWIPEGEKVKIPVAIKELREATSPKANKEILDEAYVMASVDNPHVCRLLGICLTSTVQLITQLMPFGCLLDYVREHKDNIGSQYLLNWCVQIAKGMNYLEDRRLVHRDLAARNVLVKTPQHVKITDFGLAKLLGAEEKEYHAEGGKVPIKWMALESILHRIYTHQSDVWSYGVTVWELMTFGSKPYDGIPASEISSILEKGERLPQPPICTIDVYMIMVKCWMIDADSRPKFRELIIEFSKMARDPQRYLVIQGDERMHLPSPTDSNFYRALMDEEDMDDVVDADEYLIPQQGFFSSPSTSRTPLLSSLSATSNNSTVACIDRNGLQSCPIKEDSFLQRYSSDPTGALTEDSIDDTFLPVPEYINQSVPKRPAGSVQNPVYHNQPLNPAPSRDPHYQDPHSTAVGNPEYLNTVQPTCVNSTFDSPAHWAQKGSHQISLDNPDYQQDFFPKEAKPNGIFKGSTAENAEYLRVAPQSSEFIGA

| IC50 (BT474 tumor cells) [µM] | IC50 (Colo205 tumor cells) [µM] | IC50 (EGFR) [µM] | IC50 (SK-MEL-28 tumor cells) [µM] | IC50 (ErbB2) [µM] | SMILES |
| --- | --- | --- | --- | --- | --- |
| 0.1 to 1 | 0.1 to 1 | < 0.1 | > 1 | < 0.1 | CC(C)(C)S(=O)(=O)Cc1nc(-c2cccc(NC(=O)c3c(F)cccc3F)c2)c(-c2ccnc(Nc3ccc(OCCN4CCCC4)c(Cl)c3)n2)s1 [Example 119] |
| < 0.1 | 0.1 to 1 | < 0.1 | > 1 | < 0.1 | CN1CCc2ccc(Nc3nccc(-c4sc(CS(=O)(=O)C(C)(C)C)nc4-c4cccc(NC(=O)c5c(F)cccc5F)c4)n3)cc2C1 [Example 120, N-[3-(2-{[(1,1-Dimethylethyl)sulfonyl]methyl}-5-{2-[(2-methyl-1,2,3,4-tetrahydro-7-isoquinolinyl)amino]-4-pyrimidinyl}-1,3-thiazol-4-yl)phenyl]-2,6-difluorobenzamide] |
| 0.1 to 1 | > 1 | < 0.1 | > 1 | < 0.1 | CC(C)c1nc(-c2cccc(NC(=O)c3c(F)cccc3F)c2)c(-c2ccnc(Nc3cccc(OCCN(C)C)c3)n2)s1 [Example 122] |
| 0.1 to 1 | > 1 | < 0.1 | > 1 | < 0.1 | CC(C)(C)c1nc(-c2cccc(NC(=O)c3c(F)cccc3F)c2)c(-c2ccnc(Nc3cccc(CN4CCCC4)c3)n2)s1 [Example 123, N-{3-[2-(1,1-Dimethylethyl)-5-(2-{[3-(1-pyrrolidinylmethyl)phenyl]amino}-4-pyrimidinyl)-1,3-thiazol-4-yl]phenyl}-2,6-difluorobenzamide] |
| 0.1 to 1 | 0.1 to 1 | < 0.1 | 0.1 to 1 | < 0.1 | CN1CCC(c2nc(-c3cccc(NC(=O)c4c(F)cccc4F)c3)c(-c3ccnc(Nc4ccc5c(c4)CN(C)CC5)n3)s2)CC1 [Example 125, 2,6-Difluoro-N-[3-(2-(1-methyl-4-piperidinyl)-5-{2-[(2-methyl-1,2,3,4-tetrahydro-7-isoquinolinyl)amino]-4-pyrimidinyl}-1,3-thiazol-4-yl)phenyl]benzamide] |
| > 1 | 0.1 to 1 | 0.1 to 1 | > 1 | < 0.1 | Cc1nc(-c2cccc(NC(=O)Nc3ccc(Cl)c(C(F)(F)F)c3)c2)c(-c2ccnc(Nc3ccc4c(c3)CN(C)CC4)n2)s1 [Example 129] |
| > 1 | > 1 | < 0.1 | > 1 | < 0.1 | COc1ccccc1C(=O)Nc1cccc(-c2nc(C)sc2-c2ccnc(Nc3ccc4c(c3)CN(C)CC4)n2)c1 [Example 130, N-[3-(2-Methyl-5-{2-[(2-methyl-1,2,3,4-tetrahydro-7-isoquinolinyl)amino]-4-pyrimidinyl}-1,3-thiazol-4-yl)phenyl]-2-(methyloxy)benzamide] |
| 0.1 to 1 | > 1 | < 0.1 | > 1 | < 0.1 | COc1cccc(C(=O)Nc2cccc(-c3nc(C)sc3-c3ccnc(Nc4ccc5c(c4)CN(C)CC5)n3)c2)c1 [Example 132, N-[3-(2-Methyl-5-{2-[(2-methyl-1,2,3,4-tetrahydro-7-isoquinolinyl)amino]-4-pyrimidinyl}-1,3-thiazol-4-yl)phenyl]-3-(methyloxy)benzamide trifluoroacetate] |
| > 1 | 0.1 to 1 | 0.1 to 1 | 0.1 to 1 | 0.1 to 1 | Cc1nc(-c2cccc(NC(=O)Nc3ccc(Cl)c(C(F)(F)F)c3)c2)c(-c2ccnc(Nc3ccc(OCCN(C)C)c(Cl)c3)n2)s1 [Example 133, N-[3-(5-{2-[(3-Chloro-4-{[2-(dimethylamino)ethyl]oxy}Phenyl)amino]-4-pyrimidinyl}-2-methyl-1,3-thiazol-4-yl)phenyl]-N′-[4-chloro-3-(trifluoromethyl)phenyl]urea] |
| 0.1 to 1 | > 1 | < 0.1 | > 1 | < 0.1 | Cc1cccc(C(=O)Nc2cccc(-c3nc(C)sc3-c3ccnc(Nc4ccc(OCCN(C)C)c(Cl)c4)n3)c2)c1 [Example 135, N-[3-(5-{2-[(3-Chloro-4-{[2-(dimethylamino)ethyl]oxy}phenyl)amino]-4-pyrimidinyl}-2-methyl-1,3-thiazol-4-yl)phenyl]-3-methylbenzamide] |
| 0.1 to 1 | > 1 | < 0.1 | > 1 | < 0.1 | Cc1nc(-c2cccc(NC(=O)c3cccc(Cl)c3)c2)c(-c2ccnc(Nc3ccc(OCCN(C)C)c(Cl)c3)n2)s1 [Example 136, 3-Chloro-N-[3-(5-{2-[(3-chloro-4-{[2-(dimethylamino)ethyl]oxy}phenyl)amino]-4-pyrimidinyl}-2-methyl-1,3-thiazol-4-yl)phenyl]benzamide] |
